This note sets out measurements from patent US6544966B1, “Agents promoting laminin production in skin cells” (Shiseido Company, Ltd., priority 1998, dated 2003).

Several values for one entry are separate records, joined by “and”; a condition that tells them apart may be missing. Equal values may be shown once.

The assay has as its system epidermic stratum corneum cells. The assay can be described thus: Tests for the ability to produce laminin 5 (culture of epidermic stratum corneum cells, sandwich ELISA). The class given is cell-based, human. The method, then:
Epidermic stratum corneum cells were isolated from the human preputium and cultured in an epidermic cell growth medium (KGM) having a low calcium concentration. To this culture medium were added bovine pituitary extract and EGF. After the cells were cultured in KGM up to the fourth generation, and treated with trypsin and EDTA to suspend adherent cells. Then, the culture was filtered to remove cell aggregates and thereby obtain a homogeneous cell suspension. The cells were collected by centrifugation and resuspended in DMEM-F12 (2:1)-0.1% BSA so as to give a cell density of 8×10^4 per ml. 0.5 ml each of this cell suspension was added to 0.5 ml of the same medium containing a twofold concentration of each test sample. Using a 24-well plate, incubation was carried out at 37° C. for 24 hours. After completion of the incubation, the culture supernatant was transferred to an Eppendorf tube and centrifuged at 15,000 rpm for 5 minutes. The supernatant was transferred to a new tube and stored at−20° C. till the day for the determination of laminin 5. In order to solubilize laminin 5 in the cells and bound to the culture plastics, a tris-HCl buffer (pH 7.4) containing various surfactants was added to each well and allowed to stand at −20° C. overnight. On the following day, the mixture was ultrasonicated and frozen again. On the following day, the mixture was thawed again and centrifuged at 15,000 rpm for 5 minutes. The supernatant was transferred to a tube and stored at −20° C. till the day for the determination of laminin 5.
Laminin 5 present in the culture supernatant and the cell layer was determined by the sandwich ELISA method. A monoclonal antibody (BM165) to the laminin α3 chain of laminin 5 was attached to a solid layer of a 96-well ELISA plate. In order to measure laminin 5 in a sandwiched manner, a monoclonal antibody (6F12) to the laminin β3 chain was previously biotinized (b-6F12) and used as the other antibody. […] A sample was added to each of the wells in which a 3% gelatin-phosphate buffer solution containing b-6F12 had previously been placed. The final degree of dilution of the sample in the wells was 1/4 for the culture medium and 1/10 for the cell layer. After the antigen-antibody reaction was carried out at 37° C. for 2 hours, the wells were washed, and an avidin HRP (horseradish peroxidase) solution was added thereto and reacted for a period of 30 minutes to 1 hour. After washing, a solution of ABTS serving as a substrate for HRP was added thereto and the absorbance at 405 nm was measured with an ELISA plate reader. A calibration curve was constructed over a range of 0 to 40 ng/ml.
The yield of laminin 5 was expressed by the sum of the amount liberated into the culture medium and the amount remaining in the cell layer.
Background: An ELISA detects its analyte on a solid surface through an enzyme-linked reagent.

In the case of lysophosphatidic acid [LPA-C18: 1], the “Relative yield of laminin 5 based on control with no addition (%) Mean ± Standard deviation” value is 225.4 ± 12.5% and 254.0 ± 8.7%.
Regarding “lysophosphatidylcholine [LPC-C12: 0, reference compound]”, the “Relative yield of laminin 5 based on control with no addition (%) Mean ± Standard deviation” value amounted to 88.6 ± 5.1%.
Next, lysophosphatidylcholine [LPC-C14: 0]: 100.8 ± 5.6%; lysophosphatidylcholine [LPC-C16: 0]: 104.5 ± 3.3%; lysophosphatidylcholine [LPC-C18: 0]: 112.4 ± 8.0%.
On to lysophosphatidylcholine [LPC-C18: 1], for which the “Relative yield of laminin 5 based on control with no addition (%) Mean ± Standard deviation” value is 112.7 ± 6.7% and 147.4 ± 5.2%.
lysophosphatidylcholine [LPC-C18: 2]: the “Relative yield of laminin 5 based on control with no addition (%) Mean ± Standard deviation” value was 133.6 ± 1.3% and 174.0 ± 5.4%.
